We go through six molecules from US20260185992A1, “METHODS FOR SELECTING AND TREATING PATIENTS WITH RETINAL DISEASE BASED ON COMPLEMENT PATHWAY HYPERACTIVITY” (Oak Bay Biosciences Inc., priority 2024, published 2026).

Like-named read-outs stand apart in the source and are kept apart here.

Series [1] has as its system patients with ocular disease (Geographic Atrophy, AMD). To be noted: cited from earlier work; for benefit in trials: GA trials, systemic or IVT administered agents; for Status (clinical trial outcome): Table 1, ocular disease indication.
The subject of series [2] is GA patients. To be noted: 2 mg q4w, cited from earlier work.
The conditions of series [3]: FDA prescribing information; cited from earlier work.
The target of another series is C5 (Homo sapiens, UniProt P01031). To be noted: report from publications; read-out: affinity for C5; cited from earlier work.
Sequence of C5 (P01031 19-1676): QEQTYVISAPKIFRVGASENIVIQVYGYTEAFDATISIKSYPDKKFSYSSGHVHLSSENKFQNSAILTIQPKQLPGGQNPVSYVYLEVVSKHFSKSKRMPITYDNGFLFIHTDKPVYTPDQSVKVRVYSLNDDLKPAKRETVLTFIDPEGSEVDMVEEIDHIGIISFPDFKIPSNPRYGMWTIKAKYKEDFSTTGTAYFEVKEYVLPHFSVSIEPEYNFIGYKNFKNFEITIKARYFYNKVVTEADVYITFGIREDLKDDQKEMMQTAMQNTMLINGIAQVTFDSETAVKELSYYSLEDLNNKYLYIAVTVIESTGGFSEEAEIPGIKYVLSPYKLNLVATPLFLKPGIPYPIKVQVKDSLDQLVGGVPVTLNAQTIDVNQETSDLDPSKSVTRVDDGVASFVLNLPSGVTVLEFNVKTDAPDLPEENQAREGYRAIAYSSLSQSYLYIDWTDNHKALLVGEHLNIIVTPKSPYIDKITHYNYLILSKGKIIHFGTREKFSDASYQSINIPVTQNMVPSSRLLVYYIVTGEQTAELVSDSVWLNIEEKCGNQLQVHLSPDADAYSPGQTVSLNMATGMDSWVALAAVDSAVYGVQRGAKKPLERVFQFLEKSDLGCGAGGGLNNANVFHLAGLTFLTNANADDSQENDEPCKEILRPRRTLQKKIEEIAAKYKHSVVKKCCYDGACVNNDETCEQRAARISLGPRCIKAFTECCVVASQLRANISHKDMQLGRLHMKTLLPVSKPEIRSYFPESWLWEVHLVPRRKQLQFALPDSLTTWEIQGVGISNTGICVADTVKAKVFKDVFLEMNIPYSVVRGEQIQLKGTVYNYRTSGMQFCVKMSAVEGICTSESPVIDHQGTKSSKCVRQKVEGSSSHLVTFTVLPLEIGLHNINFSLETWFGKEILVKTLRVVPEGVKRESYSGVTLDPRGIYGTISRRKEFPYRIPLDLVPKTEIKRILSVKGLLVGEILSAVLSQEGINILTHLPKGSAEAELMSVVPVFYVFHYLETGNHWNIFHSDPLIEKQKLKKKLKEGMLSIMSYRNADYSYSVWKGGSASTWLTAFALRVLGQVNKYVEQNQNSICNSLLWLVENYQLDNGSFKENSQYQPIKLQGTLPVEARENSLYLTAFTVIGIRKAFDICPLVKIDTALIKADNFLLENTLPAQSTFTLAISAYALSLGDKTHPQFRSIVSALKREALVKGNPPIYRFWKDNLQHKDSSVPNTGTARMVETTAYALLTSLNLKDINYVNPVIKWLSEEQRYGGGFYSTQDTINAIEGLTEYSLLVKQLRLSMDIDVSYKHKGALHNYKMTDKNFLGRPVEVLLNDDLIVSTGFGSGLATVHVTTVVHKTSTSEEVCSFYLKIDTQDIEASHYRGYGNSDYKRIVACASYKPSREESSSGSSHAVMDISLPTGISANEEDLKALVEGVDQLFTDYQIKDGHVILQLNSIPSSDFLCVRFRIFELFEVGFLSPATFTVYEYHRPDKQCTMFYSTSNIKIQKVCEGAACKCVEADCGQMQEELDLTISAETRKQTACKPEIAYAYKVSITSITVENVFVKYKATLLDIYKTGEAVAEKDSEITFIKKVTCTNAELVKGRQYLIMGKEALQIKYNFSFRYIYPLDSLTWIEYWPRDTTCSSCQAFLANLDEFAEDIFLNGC
Series [4] has as its system Bb in aqueous humor. Briefly: CHROMA/SPECTRI Phase 3 biomarker substudy: response to lampalizumab by aqueous humor Bb. The format is in vivo, human. To be noted: Month 6. The protocol:
Patient level data for patients in the sham, q4w, and […] lampalizumab Phase 3 biomarker study, as reported by Edmonds et al (Edmonds R. et al., “Complement pathway Inhibition by Lampalizumab: Analysis of Data From Chroma and Spectri Phase III Clinical Trials.” Ophthalmol Sci. 2023; 3 (3): 100286. Published 2023 Feb. 13), in Supplemental FIG. 6 of Bb (ng/mL) in aqueous humor was measured and converted into numerical data points. To verify accuracy of the plotted data points, mean and standard deviation was calculated using the plotted data and compared to the reported mean and standard deviation in Edmonds et al. Values were in good agreement.
(§1) In addition to the overall efficacy analyses, a biomarker sub study was conducted with about 100 patients (of which 33 from sham, q4w, q6w) with biomarker sampling at baseline and Month 6. Multiple complement factors were measured, including CFB, Bb, FD, C3, C3b/iC3b/C3d, C4, C4b/C4c. Results were described in Edmonds et al. Individual data points for the measured ocular proteins were reported in figures (Edmonds at FIG. 4 and Supplemental FIGS. 4-10) in addition to cohort level metrics (baseline and efficacy at 6 months).
In Edmonds, the ratio of Bb/CFB was used to assess complement activity and concluded that dosing with higher concentrations or more frequent dosing would not result in greater inhibitor of the complement pathway as there is no meaningful correlation between Bb: CFB ratio and percent change in aqueous humor from baseline to week 24.
To reassess the data & results described in Edmonds according to the categorization described herein, the data points for Bb at baseline and Month 6 in Supplemental FIG. 6 were converted into numerical values based on measurement relative to the axes and categorized as follows:
• 1. […] Ineffective lampalizumab administration-Hyper baseline, hyper at Month 6 and <50% reduction in Bb at Month 6 from baseline Bb • 3.

The test system of series [5] is patients with geographic atrophy. The experiment in a line: CHROMA + SPECTRI Phase 3 trials: change in GA area from baseline. Format: in vivo, human. The method, then:
The CHROMA & SPECTRI Phase 3 trials evaluated lampalizumab (anti-fD fab) intravitreally administered IVT 10 mg at q4w or q6w intervals compared to sham (untreated) controls. Both studies had identical designs, and each enrolled a total of about 900 patients (300 per cohort, lampa q4w, lampa […], etc). The trial is described in Holz et al. (Holz F G et al. “Efficacy and Safety of Lampalizumab for Geographic Atrophy Due to Age-Related Macular Degeneration: Chroma and Spectri Phase 3 Randomized Clinical Trials”. JAMA Ophthalmol. 2018; 136 (6): 666-677)
as §1
As “control” prediction methodology, the pooled progression for sham, q4w, and q6w at 12 months as reported in Edmonds of the overall Phase 3 was divided by 2 to estimate the progression of a cohort of any patients at 6 months.

For series [6], the system named is Bb in aqueous humor. To be noted: essentially all individual patients treated, q4w and q6w (Edmonds at FIG. 4B); cited from earlier work.
Series [7] has as its system patients with geographic atrophy. To be noted: cited from earlier work.
For series [8], the system named is complement component Ba in aqueous humor. The experiment in a line: Real world SYFOVRE study: response category by aqueous humor Ba. Format: in vivo, human. The method, then: (§2) Study Description: This study included GA anatomic (OCT, Specralis) & treatment administration data (treatment, injection date) and aqueous humor (AH) samples from 9 eyes of 5 patients with bilateral GA without CNV, treated with SYFOVRE® per USPI at a private retinal practice in the United States of America. The study was performed in accordance with the tenets of the Declaration of Helsinki and the Medical Research Involving Human Subjects Act (WMO) and was approved by the local Institutional Review Board. Written informed consent was obtained from all participants.
Assessment of biomarkers of AH concentration of complement component Ba. Aqueous humor sampling of the eyes was conducted by anterior chamber paracentesis using a 30-gauge needle attached to a 1-ml syringe. Samples of up to 150 μl were obtained at baseline (prior to first administration of SYFOVRE®) and after the first, second, or third administration of SYFOVRE®. Quantitative measurement of AH Ba was carried out using a direct capture immunoassay (Micro Vue; Qidel Corporation). Samples were transferred to sterile polypropylene tubes immediately after collection and stored at −80° C. until analysis was performed.
Categorization of eyes into hyper/homeo/hypo groups was performed: Hyper was ≥20 ng/mL Ba, Homeo was <20 to ≥10 ng/mL Ba, Hypo was <10 ng/mL Ba.
Categorization of response to SYFOVRE® based on biomarker criteria was performed.

In series [9] the test system is eyes of patients with bilateral GA without CNV. The experiment in a line: Real world SYFOVRE study: area of RPE loss by OCT. The format is in vivo, human. To be noted: post treatment (70 days). The method, then: as §2
For each individual eye, assessment of GA progression between baseline and the measurement of the post treatment ocular proteomics was performed based on OCT images taken at the relevant visits (baseline and visits when AH sample taken). OCT analysis of retinal atrophy was performed using automated measurement of area of RPE loss, with a foveally centered, ETDRS matched analysis performed by RetinAI. Given variability in image centering and quality between visits, for a given eye, only those regions of the retina that had consistent OCT imaging & analysis coverage at each relevant timepoint were used to calculate change in area of retinal atrophy.

Series [10] relates to patients with bilateral GA. The experiment in a line: FILLY Phase 2 study eye vs. fellow eye analysis. Format: in vivo, human. To be noted: baseline to month 12. The protocol: Apellis sponsored FILLY was a phase 2 trial evaluating efficacy of intravitreal pegcetacoplan complement C3 and C3b inhibitor on slowing GA progression, which included only one eye per participant in the treatment group.
A post hoc analysis of phase 2 FILLY trial data comparing study (treated monthly, treated every other month and sham-treated) and fellow (untreated) eyes in a split-person study design was performed and the results published (Fu et al, 2023, hereinafter “Fu”). This analysis included 288 eyes from 144 patients with bilateral GA from the FILLY phase 2 trial (Clinical Trials identifier: NCT02503332). Only patients with bilateral GA and without evidence of choroidal neovascularization in either eye were included. Patient study eyes were treated with sham injections or with pegcetacoplan monthly (PM) or every other month (PEOM) for 12 months. […] Fu specifically interpreted the data as showing “on an individual patient level, changes in GA area for the fellow eye exceeded those in the study eye for most patients in the pegcetacoplan treatment groups, while changes in the sham group approached randomness between study and fellow eyes.” Fu et al. (Fu D J et al., “Evaluating the Effects of C3 Inhibition on Geographic Atrophy Progression from Deep-Learning OCT Quantification: A Split-Person Study”. Ophthalmol Ther. 2023). […]

Series [11] deals with patients with bilateral GA. To be noted: FILLY post hoc analysis (Fu), 12 months; cited from earlier work.
The target in the next series is C3 (Homo sapiens, UniProt P01024). To be noted: report from publications; read-out: affinity for C3; cited from earlier work.
Sequence of C3 (P01024 23-1663): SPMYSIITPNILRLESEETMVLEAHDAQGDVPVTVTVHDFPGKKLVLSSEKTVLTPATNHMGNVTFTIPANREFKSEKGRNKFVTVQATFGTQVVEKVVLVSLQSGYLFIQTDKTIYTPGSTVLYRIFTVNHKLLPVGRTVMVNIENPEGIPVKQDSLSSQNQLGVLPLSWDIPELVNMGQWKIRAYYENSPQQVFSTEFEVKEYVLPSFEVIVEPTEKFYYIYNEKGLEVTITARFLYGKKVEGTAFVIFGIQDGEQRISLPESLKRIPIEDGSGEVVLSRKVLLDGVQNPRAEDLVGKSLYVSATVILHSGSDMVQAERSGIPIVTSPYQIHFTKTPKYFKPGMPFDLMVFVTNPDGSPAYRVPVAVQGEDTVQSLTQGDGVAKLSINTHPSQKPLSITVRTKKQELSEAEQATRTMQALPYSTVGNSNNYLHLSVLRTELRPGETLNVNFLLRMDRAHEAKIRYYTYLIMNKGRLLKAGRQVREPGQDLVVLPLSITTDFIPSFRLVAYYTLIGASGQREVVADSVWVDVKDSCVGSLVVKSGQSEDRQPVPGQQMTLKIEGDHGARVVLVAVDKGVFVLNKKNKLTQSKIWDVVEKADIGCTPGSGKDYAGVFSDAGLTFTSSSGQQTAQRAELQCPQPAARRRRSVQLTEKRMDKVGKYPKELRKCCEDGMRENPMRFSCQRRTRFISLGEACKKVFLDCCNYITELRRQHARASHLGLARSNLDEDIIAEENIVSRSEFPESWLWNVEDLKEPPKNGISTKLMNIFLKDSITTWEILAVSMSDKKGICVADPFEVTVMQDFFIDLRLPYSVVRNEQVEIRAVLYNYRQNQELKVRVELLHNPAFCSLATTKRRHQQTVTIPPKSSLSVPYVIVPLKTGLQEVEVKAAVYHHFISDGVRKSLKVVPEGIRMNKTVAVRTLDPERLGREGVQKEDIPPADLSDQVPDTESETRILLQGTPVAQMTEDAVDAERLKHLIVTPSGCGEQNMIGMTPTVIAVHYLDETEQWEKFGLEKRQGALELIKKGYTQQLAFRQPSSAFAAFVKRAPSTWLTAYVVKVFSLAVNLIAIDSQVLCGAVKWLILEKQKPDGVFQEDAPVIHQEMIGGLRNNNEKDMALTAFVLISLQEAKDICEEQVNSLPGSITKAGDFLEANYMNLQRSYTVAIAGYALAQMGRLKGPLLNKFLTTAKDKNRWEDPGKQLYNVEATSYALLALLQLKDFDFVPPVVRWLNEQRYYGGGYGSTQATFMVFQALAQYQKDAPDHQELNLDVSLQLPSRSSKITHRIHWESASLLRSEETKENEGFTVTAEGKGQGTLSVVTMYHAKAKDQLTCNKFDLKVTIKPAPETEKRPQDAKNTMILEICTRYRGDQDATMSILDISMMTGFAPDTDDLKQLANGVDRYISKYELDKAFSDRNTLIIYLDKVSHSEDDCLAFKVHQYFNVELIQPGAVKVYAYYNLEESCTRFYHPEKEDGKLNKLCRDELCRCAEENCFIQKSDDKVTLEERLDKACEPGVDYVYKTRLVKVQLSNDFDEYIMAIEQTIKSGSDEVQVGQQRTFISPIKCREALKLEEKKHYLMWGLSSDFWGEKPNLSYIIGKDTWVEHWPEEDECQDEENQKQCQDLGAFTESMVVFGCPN
The subject of series [12] is GA patients. To be noted: implication of FDA approved prescribing information; cited from earlier work.
For series [13] the following is noted: in vivo; cited from earlier work.

As to `[2H]C([2H])([2H])C(/C=C/C=C(C)/C=C/C1=C(C)CCCC1(C)C)=C\COC(C)=O` [Alkeus], the benefit in trials entry in [1] is listed as “failed to show benefit”.

In the case of `CC(=O)c1nn(CC(=O)N2C[C@H](F)C[C@H]2C(=O)Nc2cccc(Br)n2)c2ccc(-c3cnc(C)nc3)cc12` [danicopan], the benefit in trials result in series [1] is “failed to show benefit”.

As to avacincaptad pegol [IZERVAY®], the “reduction in mean rate of GA growth vs. sham at 12 months” value in the series on GA patients [2] (GATHER 1) is 27.4%; with GA patients [2] (GATHER 2), 14%. Also, the “geometric mean half-life of elimination (t1/2)” value in series [3] is 288 h. Besides, on C5, the Kd was roughly 3 nM.

Consider “lampalizumab: anti-fD fab, intravitreally administered 10 mg at q4w or q6w”, for which, in the series on Bb in aqueous humor [4] (Q4w, 35 eyes, 14 hyper), the “Post treatment response: Effective (number of eyes)” value was 6. Further, the “Of Hyper; Effective” value in the series with Bb in aqueous humor [4] (Q4w) is reported as 43%. Further, the “Post treatment response: Effective (number of eyes)” value in the series on Bb in aqueous humor [4] (Q6w, 32 eyes, 10 hyper) came to 2. For the same molecule, the “Of Hyper; Effective” value with Bb in aqueous humor [4] (Q6w) worked out at 20%. Moreover, in series [5] (Q4w), the “Change in GA area from baseline: (Edmonds et al) Biomarker pooled cohort at 48 w divided by 2” value was 1.08 and the “Change in GA area from baseline: CHROMA + SPECTRIA Pooled topline extrapolate to 24 w” value is reported as 1.027. Further, in [5] (Q6w), the “Change in GA area from baseline: (Edmonds et al) Biomarker pooled cohort at 48 w divided by 2” value was 1.03 and the “Change in GA area from baseline: CHROMA + SPECTRIA Pooled topline extrapolate to 24 w” value is listed as 1.028. In addition, the “Bb/CFB in aqueous humor” value in the series on Bb in aqueous humor [6] is “decreases in Bb/CFB”. Besides, in series [7] (Q4w), the “Change in GA area from baseline: (Edmonds et al) Biomarker pooled cohort at 48 w” value is 2.16, the “Change in GA area from baseline: Actual Data from (Edmonds) Biomarker pooled cohort at 24 w” value is on record as 1.0 and the “Change in GA area from baseline: CHROMA + SPECTRI Pooled topline at 48 weeks” value was 2.054. For the same molecule, in series [7] (Q6w), the “Change in GA area from baseline: (Edmonds et al) Biomarker pooled cohort at 48 w” value is 2.06, the “Change in GA area from baseline: Actual Data from (Edmonds) Biomarker pooled cohort at 24 w” value is recorded as 1.04 and the “Change in GA area from baseline: CHROMA + SPECTRI Pooled topline at 48 weeks” value was 2.055. In series [1], the benefit in trials result was “failed to show benefit” and the “Status (clinical trial outcome)” value is “failed to meet”.

On to pegcetacoplan [SYFOVRE®], for which the “Response Category” value in series [8] (Eye ID 001, OD, baseline category Hyper) is “Effective Complement Inhibition”; in series [8] (Eye ID 002, OS, baseline category Hypo), “Not”; in [8] (Eye ID 003, OD, baseline category Hyper), “Not”; in series [8] (Eye ID 004, OS, baseline category Hyper), “Not”; in [8] (Eye ID 005, OD, baseline category Homeo), “Not”; in series [8] (Eye ID 006, OS, baseline category Homeo) it was “Not”. Also, the “Response Category” value is on record as “Not” in series [8] (Eye ID 007, OD, baseline category Hypo); “Not” in series [8] (Eye ID 008, OS, baseline category Hypo); “Not” in series [8] (Eye ID 009, OD, baseline category Hypo). In addition, the “RPE depletion area post treatment” value is 6.45 mm^2 in series [9] (Eye ID 001, OD, hyper baseline, effective complement inhibition, baseline 6.57 mm^2) and 6.75 mm^2 in [9] (Eye ID 002, OS, hypo baseline, baseline 5.8 mm^2). Also, the “>=50% slowing study vs. fellow, %” value in [10] (PEOM (every other month), 35 eyes) came to 20%; in series [10] (PM (monthly), 36 eyes), 53%. Besides, the “spatial GA progression compared to untreated fellow eyes” value in series [11] is “reduction in spatial GA progression”. Moreover, on C3, the Kd is 15 nM. Further, the “expected average efficacy, slowing for all indicated GA patients” value in the series with GA patients [12] was 20%. For the same molecule, in series [13], the “geometric mean half-life of elimination (t1/2)” value is 108 h.

B1: Tesidolumab: an antibody vs. C5 (antibody, chains of the INN, looked up, V domains shown)
VH: EVQLVQSGAEVKKPGSSVKVSCKASGGTFSSYAISWVRQAPGQGLEWMGGIGPFFGTANYAQKFQGRVTITADESTSTAYMELSSLRSEDTAVYYCARDTPYFDYWGQGTLVTVSS
VL: SYELTQPLSVSVALGQTARITCSGDSIPNYYVYWYQQKPGQAPVLVIYDDSNRPSGIPERFSGSNSGNTATLTISRAQAGDEADYYCQSFDSSLNAEVFGGGTKLTVL
On to B1, for which the “Status (clinical trial outcome)” value in series [1] is listed as “Phase II failed”.
